In article PMC8226722, “Comparison of Solution Chemical Properties and Biological Activity of Ruthenium Complexes of Selected β-Diketone, 8-Hydroxyquinoline and Pyrithione Ligands” (Pharmaceuticals, 2021):

Tests used:
[1] = biological target: T1, Human serum albumin (HSA) (Homo sapiens, UniProt P02768); assay: HSA binding by spectrofluorometry (Trp-214 quenching, site marker displacement); conditions: pH 7.40 PBS’, 25 °C; for logKWF’ (warfarin displacement): site I marker; for logKDG’ (dansyl glycine displacement): site II marker
T1 construct: purchased Sigma-Aldrich A8763
Description: Steady-state spectrofluorometric measurements were also performed to assay the binding interactions at the binding pockets of HSA located in the IIA and IIIA subdomains. His residues are found nearby at both binding sites, and covalent binding is possible here. Trp-214 quenching and site marker displacement experiments were conducted as reported in our former works. Warfarin (WF) was applied as site I marker and dansyl glycine (DG) was used for site II. Representative emission spectra for Trp-214 quenching in case of 1 are shown in Figure 8a, and changes in the intensities at the emission maximum are compared for 1–4 in Figure 8b. Based on the spectral changes conditional binding constants were computed for both of the quenching and site marker displacement assays (Table 5).
Complex 2 is hardly bound at site I, while binding of 3 and 1 is considered as a strong interaction here.
Fluorescence studies were performed using a Fluoromax (Horiba Jobin Yvon, Kyoto, Japan) fluorometer in 1 × 1 cm quartz cells. All samples contained 1 μM HSA and various HSA-to-metal complex ratios (up to complex:HSA = 1:40) were used. Site marker displacement experiments were also carried out, and in the samples the HSA-to-site marker (WF or DG) ratio was 1:1 and the concentration of the complex compounds was varied. For the Trp quenching, the WF and DG displacement experiments λEX = 295, 310 and 335 nm was applied and emission spectra were recorded spectra in the wavelength range 310–450, 320–500 and 420–600 nm, respectively. Computer program HypSpec was utilized for calculation of binding constants (K’) for HSA–metal complex adducts similar to the approach described in our former works. Calculations were always based on data obtained from at least two independent measurements.

[2] = UV-vis interaction with 1-methylimidazole, monodentate binding model of HSA; conditions: pH 7.4, 102 mM chloride
Description: In our previous work, the fast interaction of complexes 7 and 8 with thiol-containing low molecular mass endogenous compounds Cys, N-acetylcysteine and glutathione was found on the basis of a mass spectrometry study. The donor atoms generally coordinate at the site of the monodentate co-ligand, however, they can also displace the weakly bound bidentate ligand as well. Herein, interaction of the complexes 1–4 towards 1-methylimidazole (mim), a monodentate binding model of HSA was measured by UV-vis (Figure 7d–f).
The reactions in all cases were very fast (except complex 2 and 4), and the observed spectral changes were similar to those obtained with HSA (Figure 7a–c). There was no indication for the replacement of the bidentate ligand by 1-methylimidazole. Considering that the latter ligand binds at the coordination site of the co-ligand, maximum one complex is able to be bound to 1-methylimidazole. However, the constant spectra upon addition of 1-methylimidazole to the complex 4 could only be reached at high excess of 1-methylimidazole due to its lower tendency to interact with this model (and with HSA as well). Based on these spectral changes, conditional binding constants were calculated for the formation of the 1-methylimidazole adducts. […] The protecting role of PTA in ligand-exchange processes for the complex pair 7 and 8 was also reported regarding their interaction with thiols or protein NCp7 [46, 47].

[3] = test system: MRC-5 normal human embryonal lung fibroblast cells; assay: MTT cytotoxicity assay, MRC-5; format: cell-based; conditions: 72 h
Description: Human colonic adenocarcinoma cell lines Colo 205 doxorubicin-sensitive (ATCC-CCL-222) and Colo 320/MDR-LRP multidrug resistant expressing ABCB1 (MDR1)-LRP (ATCC-CCL-220.1) were purchased from LGC Promochem (Teddington, UK). […] Cell lines were incubated at 37 °C, in a 5% CO2, 95% air atmosphere. The semi-adherent human colon cancer cells were detached with Trypsin-Versene (EDTA, Sigma, Steinheim, Germany) solution for 5 min at 37 °C. MRC-5 human embryonal lung fibroblast cell lines (ATCC CCL-171) were purchased from LGC Promochem. […] The cell lines were incubated at 37 °C, in a 5% CO2, 95% air atmosphere.
In the study MRC-5 non-cancerous human embryonic lung fibroblast and human colonic adenocarcinoma cell lines (doxorubicin-sensitive Colo 205 and multidrug resistant Colo 320 colonic adenocarcinoma cells) were used to determine the effect of compounds on cell growth. The effects of increasing concentrations of compounds on cell growth were tested in 96-well flat-bottomed microtiter plates. The stock solutions of the compounds were prepared in DMSO, and in the final samples the DMSO content was always lower than 1%. The compounds were diluted in a volume of 100 μL of medium.
In case of the colonic adenocarcinoma cells, the two-fold serial dilutions of compounds were prepared in 100 μL of RPMI 1640, horizontally. The semi-adherent colonic adenocarcinoma cells were treated with Trypsin-Versene (EDTA) solution. They were adjusted to a density of 1 × 10^4 cells in 100 μL of RPMI 1640 medium, and were added to each well, with the exception of the medium control wells. The final volume of the wells containing compounds and cells was 200 μL.
The culture plates were incubated at 37 °C for 72 h; at the end of the incubation period, 20 μL of MTT (Sigma) solution (from a stock solution of 5 mg/mL) were added to each well. After incubation at 37 °C for 4 h, 100 μL of sodium dodecyl sulfate (SDS) (Sigma) solution (10% in 0.01 M HCl) were added to each well and the plates were further incubated at 37 °C overnight. Cell growth was determined by measuring the optical density (OD) at 540/630 nm with Multiscan EX ELISA reader (Thermo Labsystems, Cheshire, WA, USA). […] Curves were fitted by Prism software (GraphPad Software Inc., San Diego, CA, USA) using the sigmoidal dose-response model (comparing variable and fixed slopes). The IC50 values were obtained from at least 3 independent experiments.

[4] = biological target: ABCB1 (P-glycoprotein) efflux pump (Homo sapiens, UniProt P08183); assay: Rhodamine 123 uptake/retention fluorescence assay (flow cytometry) in Colo 320 cells
Description: It is important to note, that the resistance of this cell line is primarily mediated by the overexpression of the ABC-transporter P-glycoprotein, which pumps out xenobiotics from the cytosol. […] This dye is membrane-permeable and is rapidly taken up by the cells; therefore, it can be effectively used for the screening of efflux pump inhibiting compounds. […] Then the fluorescence accumulation ratios (FAR) were calculated (Figure 1) according to the equation given in the Materials and Methods section. Verapamil was used as a reference inhibitor compound.
This fluorescence-based detection system uses verapamil (a first-generation, competitive EPI) as reference inhibitor. […] The tested compounds were added at different concentrations (2 and 20 µM; from 1 and 10 mM stock solutions, respectively) and the samples were incubated for 10 min at room temperature.
The parameters evaluated from flow cytometric experiments are forward scatter count (FSC, provides information about cell size); side scatter count (SSC, proportional to cell granularity or internal complexity); mean fluorescence of the cells (FL-1) and the computed FAR and FAR quotients (Table S1).

Chain of ABCB1 (P-glycoprotein) efflux pump (P08183 whole entry): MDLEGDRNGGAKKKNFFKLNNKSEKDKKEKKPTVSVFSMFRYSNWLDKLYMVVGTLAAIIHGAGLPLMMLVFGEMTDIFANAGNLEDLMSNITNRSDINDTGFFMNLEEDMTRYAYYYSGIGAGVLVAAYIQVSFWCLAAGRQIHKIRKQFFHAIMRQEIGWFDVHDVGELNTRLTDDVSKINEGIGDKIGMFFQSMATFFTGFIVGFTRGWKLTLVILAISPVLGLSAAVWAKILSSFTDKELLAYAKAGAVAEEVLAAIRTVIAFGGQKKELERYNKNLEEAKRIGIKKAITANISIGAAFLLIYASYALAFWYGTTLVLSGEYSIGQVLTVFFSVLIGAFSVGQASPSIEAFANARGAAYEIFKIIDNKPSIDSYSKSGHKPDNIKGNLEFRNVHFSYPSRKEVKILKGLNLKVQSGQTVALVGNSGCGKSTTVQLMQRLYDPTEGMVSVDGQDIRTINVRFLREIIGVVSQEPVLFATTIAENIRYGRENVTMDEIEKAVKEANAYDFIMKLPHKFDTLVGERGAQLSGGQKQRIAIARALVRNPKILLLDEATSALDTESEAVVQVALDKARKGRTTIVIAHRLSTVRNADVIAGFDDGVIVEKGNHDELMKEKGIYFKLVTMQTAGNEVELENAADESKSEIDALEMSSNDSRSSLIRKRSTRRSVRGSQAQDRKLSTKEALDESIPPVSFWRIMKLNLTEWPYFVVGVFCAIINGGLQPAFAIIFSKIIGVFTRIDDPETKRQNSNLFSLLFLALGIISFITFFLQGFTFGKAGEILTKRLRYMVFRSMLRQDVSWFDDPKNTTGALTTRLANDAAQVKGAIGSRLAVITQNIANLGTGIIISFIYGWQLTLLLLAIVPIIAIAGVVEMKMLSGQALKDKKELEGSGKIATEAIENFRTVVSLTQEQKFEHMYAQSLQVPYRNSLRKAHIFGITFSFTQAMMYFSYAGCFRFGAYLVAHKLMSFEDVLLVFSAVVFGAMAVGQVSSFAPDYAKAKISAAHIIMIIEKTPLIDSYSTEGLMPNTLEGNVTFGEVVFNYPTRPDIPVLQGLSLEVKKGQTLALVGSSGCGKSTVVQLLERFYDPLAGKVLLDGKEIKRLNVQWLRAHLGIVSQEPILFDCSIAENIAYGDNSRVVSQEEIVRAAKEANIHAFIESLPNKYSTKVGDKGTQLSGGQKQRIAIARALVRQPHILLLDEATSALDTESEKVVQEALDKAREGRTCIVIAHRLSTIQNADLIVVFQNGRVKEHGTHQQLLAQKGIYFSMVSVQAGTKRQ
T1 sequence (P02768 25-609): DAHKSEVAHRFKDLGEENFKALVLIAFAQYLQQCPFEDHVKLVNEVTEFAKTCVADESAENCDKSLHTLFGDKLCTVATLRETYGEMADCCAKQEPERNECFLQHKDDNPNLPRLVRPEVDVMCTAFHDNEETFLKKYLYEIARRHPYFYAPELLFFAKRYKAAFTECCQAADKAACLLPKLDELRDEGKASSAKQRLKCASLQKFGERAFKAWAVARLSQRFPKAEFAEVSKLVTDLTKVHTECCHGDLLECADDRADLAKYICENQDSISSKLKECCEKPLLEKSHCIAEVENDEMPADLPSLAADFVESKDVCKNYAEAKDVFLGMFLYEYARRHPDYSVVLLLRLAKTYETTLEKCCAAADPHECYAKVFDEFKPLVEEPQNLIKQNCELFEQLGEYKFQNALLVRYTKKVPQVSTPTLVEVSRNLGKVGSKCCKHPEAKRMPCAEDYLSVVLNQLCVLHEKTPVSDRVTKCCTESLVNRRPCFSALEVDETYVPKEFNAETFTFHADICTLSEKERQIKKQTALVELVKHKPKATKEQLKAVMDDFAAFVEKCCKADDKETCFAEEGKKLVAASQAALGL

SMILES | logKWF’ (warfarin displacement) [1] | logKDG’ (dansyl glycine displacement) [1] | logKQ’ (Trp-214 quenching) ([1]; titration, site I) | LogK’ conditional binding constant of 1-methylimidazole adduct [2] | IC50 [3] [µM] | FAR fluorescence accumulation ratio ([4]; Colo 320, 2 μM) | FAR quotient (FAR related to that of 20 μM verapamil) ([4]; Colo 320, 2 μM) [%] | FSC forward scatter count ([4]; Colo 320, 2 μM) | SSC side scatter count ([4]; Colo 320, 2 μM) | FAR fluorescence accumulation ratio ([4]; Colo 320, 20 μM) | FAR quotient (FAR related to that of 20 μM verapamil) ([4]; Colo 320, 20 μM) [%] | FSC forward scatter count ([4]; Colo 320, 20 μM) | SSC side scatter count ([4]; Colo 320, 20 μM) | FL-1 mean fluorescence of the cells ([4]; Colo 320, rhodamine 123, 2 μM) | FL-1 mean fluorescence of the cells ([4]; Colo 320, rhodamine 123, 20 μM) | logKQ’ (Trp-214 quenching) ([1]; batch, 48 h equilibration)
Cc1ccc(C(C)C)cc1.[Cl-].[O-]n1ccccc1=S.[Ru+2] [complex 1] | 6.16 ± 0.03 | 5.80 ± 0.03 | 5.81 ± 0.03 | 4.16 ± 0.45 | 2.17 ± 0.22 |  |  |  |  |  |  |  |  |  |  | 
C1N2CN3CN1CP(C2)C3.Cc1ccc(C(C)C)cc1.F[P-](F)(F)(F)(F)F.[O-]n1ccc2ccccc2c1=S.[Ru+2] [complex 4] |  |  | 4.46 ± 0.03 | 3.64 ± 0.02 |  | 0.82 | 17.0 | 2014 | 959 | 1.70 | 35.2 | 1977 | 973 | 4.33 | 8.95 | 5.39 ± 0.03
C1N2CN3CN1CP(C2)C3.Cc1ccc(C(C)C)cc1.F[P-](F)(F)(F)(F)F.O=C(C=C([O-])C(F)(F)F)c1ccc(Cl)cc1.[Ru+2] [complex 8] |  |  |  |  | 17.6 ± 1.5 | 0.66 | 13.8 | 1925 | 877 | 1.08 | 22.4 | 1950 | 917 | 3.51 | 5.68 | 
C1N2CN3CN1CP(C2)C3.Cc1ccc(C(C)C)cc1.F[P-](F)(F)(F)(F)F.[O-]n1ccccc1=S.[Ru+2] [complex 2] |  |  | <4 |  | > 100 | 1.02 | 21.3 | 2034 | 962 | 1.02 | 21.3 | 2071 | 1024 | 5.4 | 5.41 | 
Cc1ccc(C(C)C)cc1.[Cl-].[O-]n1ccc2ccccc2c1=S.[Ru+2] [complex 3] | 5.98 ± 0.03 | 5.61 ± 0.03 | 6.18 ± 0.03 | 4.18 ± 0.27 | 7.6 ± 1.6 |  |  |  |  |  |  |  |  |  |  | 
Cc1ccc(C(C)C)cc1.O=C(C=C([O-])C(F)(F)F)c1ccc(Cl)cc1.[Cl-].[Ru+2] [complex 7] |  |  |  |  | 26.5 ± 3.2 | 1.11 | 23.1 | 1988 | 946 | 1.31 | 27.3 | 1909 | 900 | 5.86 | 6.94 | 
